Experimental data: ChEMBL document CHEMBL5390231, “Development of small molecule inhibitors targeting RNA helicase DHX33 as anti-cancer agents” (Bioorg Med Chem Lett, 2023)

Experiments:
[1] = target: T1, Probable ATP-dependent RNA helicase DDX6 (Homo sapiens, UniProt P26196); experiment: Inhibition of N-terminal thioredoxin-tagged human recombinant DDX6 transformed in Escherichia coli BL21(DE3)pLysS cells
T1 sequence (P26196 whole entry): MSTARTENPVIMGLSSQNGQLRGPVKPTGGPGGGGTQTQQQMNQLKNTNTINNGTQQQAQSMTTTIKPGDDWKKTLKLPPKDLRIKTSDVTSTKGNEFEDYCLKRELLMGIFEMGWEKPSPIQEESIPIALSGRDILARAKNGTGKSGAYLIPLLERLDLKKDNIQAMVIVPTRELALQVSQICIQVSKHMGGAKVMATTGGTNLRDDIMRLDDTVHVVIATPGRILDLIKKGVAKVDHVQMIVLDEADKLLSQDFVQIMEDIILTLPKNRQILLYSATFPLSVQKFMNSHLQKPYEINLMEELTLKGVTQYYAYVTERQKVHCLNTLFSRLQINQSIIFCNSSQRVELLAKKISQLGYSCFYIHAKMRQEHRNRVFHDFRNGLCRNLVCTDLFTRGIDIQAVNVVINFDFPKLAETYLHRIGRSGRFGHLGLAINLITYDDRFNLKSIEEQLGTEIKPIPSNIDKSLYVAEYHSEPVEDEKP

[2] = target: T2, Probable ATP-dependent RNA helicase DHX35 (Homo sapiens, UniProt Q9H5Z1); experiment: Inhibition of N-terminal thioredoxin-tagged human recombinant DHX35 transformed in Escherichia coli BL21(DE3)pLysS cells
T2 sequence (Q9H5Z1 whole entry): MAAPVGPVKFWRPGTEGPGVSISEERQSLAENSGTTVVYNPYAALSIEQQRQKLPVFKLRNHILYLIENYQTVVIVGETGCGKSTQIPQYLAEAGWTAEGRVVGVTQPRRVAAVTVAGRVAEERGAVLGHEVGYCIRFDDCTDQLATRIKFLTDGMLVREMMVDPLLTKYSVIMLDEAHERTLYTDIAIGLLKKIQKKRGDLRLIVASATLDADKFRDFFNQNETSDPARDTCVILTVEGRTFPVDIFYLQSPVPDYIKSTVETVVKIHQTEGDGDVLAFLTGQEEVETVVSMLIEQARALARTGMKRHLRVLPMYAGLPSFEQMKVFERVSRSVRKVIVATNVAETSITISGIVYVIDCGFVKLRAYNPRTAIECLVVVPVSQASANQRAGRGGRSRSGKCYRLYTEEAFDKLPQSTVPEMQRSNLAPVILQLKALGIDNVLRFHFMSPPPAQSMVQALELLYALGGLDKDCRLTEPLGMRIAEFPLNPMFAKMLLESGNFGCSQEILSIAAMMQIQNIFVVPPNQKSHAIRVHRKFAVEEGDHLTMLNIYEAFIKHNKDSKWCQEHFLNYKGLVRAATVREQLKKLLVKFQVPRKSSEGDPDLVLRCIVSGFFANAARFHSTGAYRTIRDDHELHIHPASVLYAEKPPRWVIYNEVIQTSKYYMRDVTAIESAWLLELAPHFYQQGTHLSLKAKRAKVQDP

[3] = target: T3, Probable ATP-dependent RNA helicase DHX40 (Homo sapiens, UniProt Q8IX18); experiment: Inhibition of N-terminal thioredoxin-tagged human recombinant DHX40 transformed in Escherichia coli BL21(DE3)pLysS cells
T3 sequence (Q8IX18 whole entry): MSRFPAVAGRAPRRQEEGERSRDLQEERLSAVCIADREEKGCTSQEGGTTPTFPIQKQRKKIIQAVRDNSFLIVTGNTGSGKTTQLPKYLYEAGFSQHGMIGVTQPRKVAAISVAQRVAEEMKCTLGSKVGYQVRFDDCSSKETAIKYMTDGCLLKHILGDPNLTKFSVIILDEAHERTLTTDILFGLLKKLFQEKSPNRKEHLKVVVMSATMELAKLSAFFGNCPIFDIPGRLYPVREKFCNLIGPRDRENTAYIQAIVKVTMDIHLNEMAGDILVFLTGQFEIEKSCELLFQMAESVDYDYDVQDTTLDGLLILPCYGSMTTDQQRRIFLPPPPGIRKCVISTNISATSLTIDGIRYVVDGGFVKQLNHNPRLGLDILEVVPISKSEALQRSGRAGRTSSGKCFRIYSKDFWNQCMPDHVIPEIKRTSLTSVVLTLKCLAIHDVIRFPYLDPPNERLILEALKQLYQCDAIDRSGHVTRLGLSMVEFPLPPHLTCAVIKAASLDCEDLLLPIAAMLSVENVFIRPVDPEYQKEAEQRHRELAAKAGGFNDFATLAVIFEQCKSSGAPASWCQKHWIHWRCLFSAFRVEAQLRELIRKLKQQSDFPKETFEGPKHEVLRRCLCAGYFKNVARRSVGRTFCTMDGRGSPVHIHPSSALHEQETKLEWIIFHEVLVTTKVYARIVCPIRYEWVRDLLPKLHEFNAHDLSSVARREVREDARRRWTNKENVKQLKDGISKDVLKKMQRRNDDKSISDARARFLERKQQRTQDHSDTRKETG

[4] = target: T4, Probable ATP-dependent RNA helicase DDX59 (Homo sapiens, UniProt Q5T1V6); experiment: Inhibition of C-terminal 6xHis-tagged human recombinant DDX59 transformed in Escherichia coli BL21(DE3)pLysS cells
T4 sequence (Q5T1V6 whole entry): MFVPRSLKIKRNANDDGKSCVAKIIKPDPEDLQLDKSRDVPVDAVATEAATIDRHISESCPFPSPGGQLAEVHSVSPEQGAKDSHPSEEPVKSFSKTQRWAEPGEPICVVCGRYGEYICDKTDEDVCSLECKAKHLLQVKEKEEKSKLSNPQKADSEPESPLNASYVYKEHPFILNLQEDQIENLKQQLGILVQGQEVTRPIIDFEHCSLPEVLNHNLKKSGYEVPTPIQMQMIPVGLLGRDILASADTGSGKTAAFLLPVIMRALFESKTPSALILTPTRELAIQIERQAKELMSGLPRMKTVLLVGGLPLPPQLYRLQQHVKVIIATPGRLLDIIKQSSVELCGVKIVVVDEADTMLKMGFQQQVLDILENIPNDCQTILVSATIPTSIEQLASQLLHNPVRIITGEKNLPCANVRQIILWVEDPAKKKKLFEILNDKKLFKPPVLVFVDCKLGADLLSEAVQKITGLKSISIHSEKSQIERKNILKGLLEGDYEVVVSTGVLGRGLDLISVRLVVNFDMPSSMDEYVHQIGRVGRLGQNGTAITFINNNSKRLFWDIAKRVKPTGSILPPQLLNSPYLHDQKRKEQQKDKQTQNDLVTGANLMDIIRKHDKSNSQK

IC50 [1]: > 100 µM | IC50 [2]: 117 µM | IC50 [3]: > 100 µM | IC50 [4]: > 100 µM
Structure (SMILES): COc1ccc2nc(NC(=O)c3cc(C)n(-c4sc(C)cc4C#N)c3C)[nH]c2c1
